US10392389B2, “Heterocyclic compounds for the inhibition of PASK” (BioEnergenix, LLC, priority 2012, dated 2019)

Target: T1, PASK (Invitrogen) (Homo sapiens, UniProt Q96RG2)
T1 construct: IC50 Kinase Domain; purchased Invitrogen
Assay: PAS Kinase FRET Assay
Format: biochemical
Conditions: PAS kinase TR-FRET assay (665 nm/615 nm); read-out: IC50 Kinase Domain
Source text: Biochemical Assay for hPASK Activity
The aim of the FRET assay is to determine the inhibition potential of test compounds on targeted kinase. This assay platform provides a homogenous screening method for measuring kinase activity by quantitating the amount of phospho-substrate in solution following a kinase reaction.
In the presence of kinase and ATP, the Ulight-peptide is phosphorylated and captured by an anti-phospho-substrate antibody, which brings the Eu chelate donor and Ulight acceptor dyes into close proximity. Upon excitation at 340 nm, the Eu chelate transfers its energy to the Ulight dye, resulting in a fluorescent light emission at 665 nm.
Titration of kinase at 1 mM ATP was achieved via the following protocol. After making serial three-fold dilutions of PASK (Invitrogen) in reaction buffer across the plate; 5 μl of kinase dilution and 5 μl substrate/ATP mix were added to the wells of the white Optiplate-384 (PerkinElmer). The contents of the plate were and incubated at RT for 1 h. The reaction was stopped by adding 5 μl of stop solution to each test well followed by mixing and incubation at RT for 10 minutes. 5 μl of detection mix (detection antibody diluted in detection buffer) was added; the contents of the plate were mixed and then incubated in the dark for 1 hour at RT. The signal was recorded at TR-FRET mode (665 nm/615 nm). The results were graphed to calculate the EC50.
Titration of ATP at the EC50 concentration of kinase to determine ATP Km,app. was performed using the following method. After making serial dilutions of ATP (Invitrogen), 5 μl of ATP dilution and 5 μl substrate/kinase mix were added to the wells of the white Optiplate-384 (PerkinElmer). The contents of the plate were and incubated at RT for 1 h. The reaction was stopped by adding 5 μl of stop solution to each test well followed by mixing and incubation at RT for 10 minutes. 5 μl of detection mix (detection antibody diluted in detection buffer) was added; the contents of the plate were mixed and then incubated in the dark for 1 hour at RT. The signal was recorded at TR-FRET mode (665 nm/615 nm). The results were graphed to calculate the EC50 as the ATP Km,app.
Compound screening was done via the following method. 10 mM stock solution of test compound in DMSO was prepared by dissolving test compound in DMSO at RT for 1 hour, and then sonicating at 100% output for 8 minutes. If compound is not soluble under this condition, it was diluted to 3 mM. Kinase reaction buffer was prepared containing 10 mM MgCl2, 50 mM HEPES, 1 mM EGTA, 0.01% TWEEN-20, 2 mM DTT. Serial dilutions of the test compounds were prepared at 4× final assay concentrations using Freedom EVO200® dispensing system as follows: 12×10^−5 M, 4×10^−5 M, 1.33×10^−5 M, 4.44×10^−6 M, 1.48×10^−6 M, 4.92×10^−7 M, 1.65×10^−7 M, […], 1.82×10^−8M, 6.09×10^−9, 2.03×10^−9 M. Test compounds (2.5 μl at 4× the final assay concentration) was added to wells using Freedom EVO200® dispensing system. As a positive control, 2.5 μl of positive compound was added to assay wells, and 2.5 μl of DMSO to assay wells as vehicle control. Kinase solution was prepared in reaction buffer at 2× final assay concentration. Kinase solution (5 μl) was added to each well of the assay plate. The substrate and ATP solution was prepared in kinase reaction buffer at 4× final assay concentration. The kinase reaction was started by adding 2.5 μl of substrate+ATP mix solution to each well of the assay plate. The plate is mixed on a plate shaker; then covered and allowed to react for 2 hours in the dark at 25° C. without shaking. The reaction was stopped by adding 5 μl of stop solution to each test well followed by mixing and incubation at RT for 10 minutes in the dark. 5 μl of detection mix (detection antibody diluted in detection buffer) was added; the contents of the plate were mixed and then incubated in the dark for 1 hour at RT. The signal was recorded at TR-FRET mode (665 nm/615 nm).

T1 sequence (Q96RG2 999-1251 limits assumed): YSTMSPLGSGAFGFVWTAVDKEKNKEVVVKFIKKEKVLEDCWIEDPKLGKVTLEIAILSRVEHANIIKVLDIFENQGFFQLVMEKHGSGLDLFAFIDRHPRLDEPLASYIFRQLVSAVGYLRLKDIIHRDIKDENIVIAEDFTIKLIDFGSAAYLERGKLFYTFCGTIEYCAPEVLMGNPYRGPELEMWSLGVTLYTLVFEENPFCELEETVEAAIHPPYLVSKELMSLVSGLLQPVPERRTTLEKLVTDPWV

SMILES | IC50 [µM]
Cc1noc(-c2cnn3c(=O)cc(-c4ccc5c(cnn5C5COC5)c4)[nH]c23)n1 [Example 99, 3-(3-methyl-1,2,4-oxadiazol-5-yl)-5-(1-(oxetan-3-yl)-1H-indazol-5-yl)pyrazolo[1,5-a]pyrimidin-7(4H)-one] | ≤ 10
CCc1noc2cc(-c3cc(=O)n4ncc(-c5ncc(C)o5)c4[nH]3)ccc12 [Example 121, 5-(3-ethylbenzo[d]isoxazol-6-yl)-3-(5-methyloxazol-2-yl)pyrazolo[1,5-a]pyrimidin-7(4H)-one] | ≤ 10
CCn1ncc2ccc(-c3cc(=O)n4ncc(-c5ncc(C)o5)c4[nH]3)cc21 [Example 112, 5-(1-ethyl-1H-indazol-6-yl)-3-(5-methyloxazol-2-yl)pyrazolo[1,5-a]pyrimidin-7(4H)-one] | ≤ 10
CCOc1cc(-c2cc(=O)n3ncc(-c4ccnn4C)c3[nH]2)ccc1F [Example 78, 5-(3-ethoxy-4-fluorophenyl)-3-(1-methyl-1H-pyrazol-5-yl)pyrazolo[1,5-a]pyrimidin-7(4H)-one] | ≤ 10
CCOc1cc(-c2cc(=O)n3ncc(-c4ncc(C)o4)c3[nH]2)ccc1Cl [Example 46, 5-(4-chloro-3-ethoxyphenyl)-3-(5-methyloxazol-2-yl)pyrazolo[1,5-a]pyrimidin-7(4H)-one] | ≤ 10
Cc1csc(-c2cnn3c(=O)cc(-c4ccc(Cl)c(Cl)c4)[nH]c23)n1 [Example 101, 5-(3,4-dichlorophenyl)-3-(4-methylthiazol-2-yl)pyrazolo[1,5-a]pyrimidin-7(4H)-one] | ≤ 10
CCOc1cc(-c2cc(=O)n3ncc(-c4ncc(CC)o4)c3[nH]2)ccc1Cl [Example 35, 5-(4-chloro-3-ethoxyphenyl)-3-(5-ethyloxazol-2-yl)-4H,7H-pyrazolo[1,5-a]pyrimidin-7-one] | ≤ 10
CCOc1cc(-c2cc(=O)n3ncc(-c4ncco4)c3[nH]2)ccc1Cl [Example 34, 5-(4-chloro-3-ethoxyphenyl)-3-(oxazol-2-yl)-4H,7H-pyrazolo[1,5-a]pyrimidin-7-one] | ≤ 10
CCNC(=O)Cc1cnn2c(=O)cc(-c3ccc(Cl)c(OC)c3)[nH]c12 [Example 80, 2-[5-(4-chloro-3-methoxyphenyl)-7-oxo-4H,7H-pyrazolo[1,5-a]pyrimidin-3-yl]-N-ethylacetamide] | ≤ 10
CCn1ncc2cc(-c3cc(=O)n4nc(C)c(-c5nc(C)no5)c4[nH]3)ccc21 [Example 115, 5-(1-ethyl-1H-indazol-5-yl)-2-methyl-3-(3-methyl-1,2,4-oxadiazol-5-yl)-4H,7H-pyrazolo[1,5-a]pyrimidin-7-one] | ≤ 10
CCn1ncc2ccc(-c3cc(=O)n4ncc(-c5ncco5)c4[nH]3)cc21 [Example 109, 5-(1-ethyl-1H-indazol-6-yl)-3-(oxazol-2-yl)pyrazolo[1,5-a]pyrimidin-7(4H)-one] | ≤ 10
Cc1noc(-c2cnn3c(=O)cc(-c4ccc(Cl)cc4)[nH]c23)n1 [Example 7, 5-(4-chlorophenyl)-3-(3-methyl-1,2,4-oxadiazol-5-yl)-4H,7H-pyrazolo[1,5-a]pyrimidin-7-one] | ≤ 10
CCCn1ncc2cc(-c3cc(=O)n4ncc(-c5ncc(C)o5)c4[nH]3)ccc21 [Example 103, 3-(5-methyloxazol-2-yl)-5-(1-propyl-1H-indazol-5-yl)pyrazolo[1,5-a]pyrimidin-7(4H)-one] | ≤ 10
CC(C)n1ncc2cc(-c3cc(=O)n4ncc(-c5ccnn5C)c4[nH]3)ccc21 [Example 88, 5-(1-isopropyl-1H-indazol-5-yl)-3-(1-methyl-1H-pyrazol-5-yl)pyrazolo[1,5-a]pyrimidin-7(4H)-one] | ≤ 10
COc1cc(-c2cc(=O)n3ncc(-c4noc5ccccc45)c3[nH]2)ccc1Cl [Example 50, 3-(benzo[d]isoxazol-3-yl)-5-(4-chloro-3-methoxyphenyl)pyrazolo[1,5-a]pyrimidin-7(4H)-one] | ≤ 10
O=c1cc(-c2ccc(Cl)cc2)[nH]c2c(-c3ncco3)cnn12 [Example 48, 5-(4-chlorophenyl)-3-(oxazol-2-yl)pyrazolo[1,5-a]pyrimidin-7(4H)-one] | ≤ 10
